This is an account of results in PubChem BioAssay (NCI).

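Exposure lasted 48 hours, with cells grown in 96-well plates and compounds tested at five concentrations. The concentration for 50% growth inhibition is given as GI50. The concentration for full growth arrest is given as TGI.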

Common to all, as to assay: DTP human tumour cell line panel, 48 h
The subject of assay [1] is A549 NSCLC.
In assay [2] the test system is HCC-2998 colon.
Assay [3] has as its system HOP-62 NSCLC.
For assay [4], the system named is MDA-MB-231 breast.
The subject of assay [5] is MOLT-4 leukemia.
Assay [6] concerns OVCAR-8 ovarian.
Assay [7] concerns SF-295 CNS.
In assay [8] the test system is SNB-19 CNS.
Assay [9] deals with U251 CNS.
The test system of assay [10] is PC-3 prostate.

The term TGI denotes the concentration giving total growth inhibition. A lower TGI goes with greater sensitivity of the cells. Consider `CCOc1ccc2ccccc2c1NC1=NCCO1`, for which the TGI was more than 100 µM in assay [1]; more than 100 µM in assay [2]; 74.2 µM in assay [3]; more than 100 µM in [4]; 84 µM in assay [5]; more than 100 µM in assay [6]. Moreover, the values for the TGI in [7], in assay [8] and in assay [9] were 65.5 µM, more than 100 µM and more than 100 µM, respectively.
As a reminder, the GI50 is the concentration giving 50% growth inhibition. `COc1cc(C2CC(c3cccc(Nc4ccncc4)c3)=NN2c2cc(Cl)cc(Cl)c2)cc(OC)c1OC` (stereo unspecified): the GI50 was 1.56 µM in assay [2], 1.53 µM in [5], 1.57 µM in assay [10] and 1.61 µM in assay [8]. Also, the TGI stood at 2.98 µM in assay [2], 3.57 µM in assay [5], 3.14 µM in assay [10] and 3.02 µM in assay [8].
For `CCOc1ccc(N2C(=O)C3c4[nH]c5ccccc5c4C4CCC(C(C)(C)C)CC4C3C2=O)cc1` (stereo unspecified), the TGI in assay [1] was more than 100 µM; in assay [2] it was 79.4 µM; in [3], more than 100 µM; in assay [5] it was more than 100 µM; in assay [6], more than 100 µM; in assay [7], more than 100 µM. Moreover, the TGI in assay [8] and in [9] was more than 100 µM throughout.
As for `CCCCCCCCCCCCCCCC(=O)ON1C(=S)NC(C)(c2ccccc2)C1=S` (stereo unspecified), the TGI in assay [1], in assay [2], in [3], in [4], in assay [5] and in [6] was more than 100 µM each time. In addition, the TGI in [10], in [7] and in assay [8] was more than 100 µM throughout.
On to `Cc1ccc(-c2sc(-c3ccc(C)cc3)c3c2C2CCC3C2)cc1`, for which the concentration for total growth inhibition (TGI) in assay [1], in assay [3], in assay [4], in [5], in [6] and in assay [10] was more than 50 µM throughout. Moreover, the total growth inhibition concentration (TGI) in [7], in [8] and in assay [9] was more than 50 µM each time.
For the molecule `CC(=O)Oc1c(C)cc(-c2cc(C)c(OC(C)=O)c(C)c2)cc1C`, the TGI in [1] is more than 100 µM; in assay [3], more than 100 µM; in [5], more than 100 µM; in [6] it was more than 100 µM; in assay [10] it was more than 100 µM; in assay [7], 93.8 µM. Moreover, the TGI in assay [8] is more than 100 µM; in assay [9] it was 39.5 µM.
Consider `O=C(Cc1ccccc1)NN1C(=O)C(Cl)C1c1cccc(O)c1` (stereo unspecified), for which the TGI in [1] was found to be 59.8 µM; in assay [2], 36.8 µM; in assay [3], 80.6 µM; in assay [5], 31.6 µM; in assay [6], 35.1 µM; in assay [7], 40.4 µM. The TGI in [8] was more than 100 µM; in assay [9] it was 24.4 µM.
For the molecule `O=C1C=C(N2CCCC2)C=C(N2CCCC2)C1`, the TGI in assay [1], in [2], in assay [3], in assay [5], in assay [6] and in assay [7] was more than 100 µM in each case. Further, the TGI in assay [8] and in assay [9] was more than 100 µM in each case.
On to `CN1CCN(c2nc3ccccc3nc2C(=O)c2ccc(Cl)cc2)CC1`, for which the TGI in [1] was more than 100 µM; in assay [2], 99.7 µM; in [3] it was more than 100 µM; in assay [5], more than 100 µM; in assay [6], more than 100 µM; in assay [10], more than 100 µM. The TGI in [7], in [8] and in [9] was more than 100 µM in each case.
Regarding `O=C1CC2CC=C[C@H]3c4cc5c(cc4C(=O)N1C23)OCO5` (stereo partly specified), the TGI in [1], in [2], in [3], in assay [5], in assay [6] and in [7] was more than 50 µM each time. The TGI in assay [8] and in [9] was more than 50 µM in each case.
For `Cc1nc(-c2ccccc2)c(C)n2c1nc1ccccc12`, the TGI was more than 100 µM in assay [1]; more than 100 µM in [3]; more than 100 µM in [4]; more than 100 µM in [5]; 70.1 µM in [6]; more than 100 µM in [10]. For the same molecule, the TGI in assay [7], in assay [8] and in [9] was more than 100 µM each time.
Regarding `CC(CC(=O)CO[C@H]1[C@H](O)[C@@H](O)[C@@H](O)[C@@H]2NC(=O)c3c(cc4c(c3O)OCO4)[C@H]21)OC1OC(CO)C(O)C(O)C1O` (stereo partly specified), the TGI was 9.23 µM in assay [1]; 0.633 µM in assay [2]; 2.29 µM in [3]; 1.89 µM in [4]; 3.54 µM in [5]; 2.07 µM in [6]. Also, the results for the TGI in assay [10], in assay [7] and in [8] were 1.48 µM, 5.65 µM and 7.89 µM, respectively.
`O=C1Nc2cccc3ncn(c23)C2=C1CCCC2`: the TGI in assay [1], in assay [2], in assay [5], in [6], in assay [7] and in assay [8] was more than 100 µM each time. The same molecule returned a TGI in assay [9] of more than 100 µM.
As to `Clc1ccccc1/C=C/c1nsc(/C=C/c2ccccc2Cl)n1`, the TGI in assay [1], in [3], in [4], in assay [5], in [6] and in assay [10] was more than 100 µM each time. In addition, the concentration for total growth inhibition (TGI) in assay [7], in assay [8] and in assay [9] was more than 100 µM throughout.
For the molecule `NS(=O)(=O)c1ccc(NC(=O)c2cc([N+](=O)[O-])cc([N+](=O)[O-])c2)cc1`, the TGI was more than 100 µM in [1]; more than 100 µM in assay [3]; more than 100 µM in [4]; more than 100 µM in [5]; more than 100 µM in assay [6]; 86.8 µM in assay [10]. Moreover, the total growth inhibition concentration (TGI) in assay [8] and in [9] was more than 100 µM throughout.
